Columns and labels:
Assay type in all cases: functional, Homo sapiens
Parameters in all cases: dose or concentration left out as unconfirmed
[1] = test system: Colon cancer organoid; test: Identification of compartment-specific drug sensitivities in O06 CRC organoid-stroma F06 CAF co-cultures. Organoid is transduced with Lucferase2-P2A-EGFP lentivirus, fibroblast with Renilla-dsRed lentivirus. Dual-Glo Luciferase assay is used to report viability data.
[2] = test system: Colon cancer organoid; test: Identification of compartment-specific drug sensitivities in O14 CRC organoid-stroma F14 CAF co-cultures. Organoid is transduced with Lucferase2-P2A-EGFP lentivirus, fibroblast with Renilla-dsRed lentivirus. Dual-Glo Luciferase assay is used to report viability data.
[3] = test system: Colon cancer organoid; test: Identification of compartment-specific drug sensitivities in O20 CRC organoid-stroma F20 CAF co-cultures. Organoid is transduced with Lucferase2-P2A-EGFP lentivirus, fibroblast with Renilla-dsRed lentivirus. Dual-Glo Luciferase assay is used to report viability data.
[4] = Transduced with Lucferase2-P2A-EGFP lentivirus
[5] = Transduced with Renilla-dsRed lentivirus

Structure (SMILES)	Cell Viability [1, 4] [%]	Cell Viability [1, 5] [%]	Cell Viability [2, 4] [%]	Cell Viability [2, 5] [%]	Cell Viability [3, 4] [%]	Cell Viability [3, 5] [%]
CN1CCN(c2ccnc(NCCc3ccccc3)n2)CC1 [TP-040n]	57.9985	123.721	106.261	101.91	67.1911	97.5889
N#CC1(c2ccccn2)CCN(Cc2cc(C(=O)N3CCCC3)c(=O)n3ccccc23)CC1 [MSD-M1PAM-NC]	85.4848	72.6928	93.1425	88.6945	103.159	109.338
CC[C@@H]1CN(C(=O)NCC(F)(F)F)C[C@@H]1c1cnc2cnc3[nH]ccc3n12 [UPADACITINIB]	104.182	86.3482	147.848	94.1248	123.879	83.5298
CCc1ccccc1C(=O)Nc1n[nH]c2c(C)c(F)c(C3C(C#N)=C(C)N(C)C(C)=C3C#N)cc12 [BAY-3827]	43.7855	108.902	97.9341	94.3175	74.4041	157.673
Cn1c(=O)[nH]c2cc(N3C(=O)c4cccc5c(CCCO)ccc(c45)C3=O)ccc21	115.119	110.623	148.781	92.4291	127.541	89.8045
COc1ncc(F)cc1CNc1ccc(Cc2c[nH]c3ncc(C)cc23)c(F)n1 [PLX-5622]	82.7626	63.3822	119.621	35.1649	206.903	55.6932
Cl.O=C([C@@H](Cc1cccc(C(F)(F)F)c1)NS(=O)(=O)c1cc(F)c2c(c1)CCNC2)N1CCCC1	84.043	115.078	117.922	108.808	153.218	150.248
CC(C)N(CCCNC(=O)Nc1ccc(C(C)(C)C)cc1)C[C@H]1O[C@@H](n2cc(Br)c3c(N)ncnc32)[C@H](O)[C@@H]1O	62.4885	97.8527	74.0278	90.8718	59.6009	110.156
Cn1cc(-c2ccc3occ(-c4ccccc4-c4ccccc4)c3n2)cn1	43.2566	104.957	109.875	78.5125	88.7548	89.3741
CCC(=O)Nc1cccc(Oc2nc(Nc3ccc(N4CCN(C)CC4)cc3OC)ncc2Cl)c1	92.8013	94.5997	157.299	90.5023	125.304	105.023

From ChEMBL document CHEMBL5608141, “Identification of compartment-specific drug sensitivities in CRC organoid-stroma co-cultures” (2024)
